A word on the ΔTm: it is the change in melting temperature against a reference sample.

The values that follow come from ChEMBL document CHEMBL4373727, “Thienopyrimidinone Derivatives That Inhibit Bacterial tRNA (Guanine37-N1)-Methyltransferase (TrmD) by Restructuring the Active Site with a Tyrosine-Flipping Mechanism” (J Med Chem, 2019).

A short description of assay [1]: Selectivity ratio of Kd for full length Staphylococcus aureus tRNA (guanine(37)-N1)-methyltransferase expressed in Escherichia coli BL21 (DE3) to Kd for Pseudomonas aeruginosa tRNA (guanine(37)-N1)-methyltransferase (Leu5 to Asp25 residues) expressed in Escherichia coli BL21 (DE3) Rosetta T1R cells.
Assay [2] addresses T1, tRNA (guanine-N(1)-)-methyltransferase (Staphylococcus aureus (strain NCTC 8325 / PS 47)) (UniProt Q2FZ43).
T1 sequence (whole entry): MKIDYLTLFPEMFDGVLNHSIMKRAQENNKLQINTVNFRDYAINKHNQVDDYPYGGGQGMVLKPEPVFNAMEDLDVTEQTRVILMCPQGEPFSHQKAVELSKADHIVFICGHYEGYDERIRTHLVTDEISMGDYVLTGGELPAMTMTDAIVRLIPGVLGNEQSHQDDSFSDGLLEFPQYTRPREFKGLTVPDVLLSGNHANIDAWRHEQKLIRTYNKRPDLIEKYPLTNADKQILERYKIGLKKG
The assay can be described thus: Binding affinity to full length Staphylococcus aureus tRNA (guanine(37)-N1)-methyltransferase expressed in Escherichia coli BL21 (DE3) assessed as thermal stabilization of protein by measuring change in melting temperature at 0.1 mM by SYPRO orange based thermal shift assay.

For the compound `NC1CCN(Cc2ccc(CNC(=O)c3csc4nc[nH]c(=O)c34)cc2)CC1`, the Ratio in assay [1] was 100 to 300. Further, the ΔTm in assay [2] lay within 1 to 13 °C.
